Read-outs that look alike come from different tables or passages of the source.
What was measured:
[1] = test system: glutamate carboxypeptidase II; conditions: reduces sensitivity for detecting metastatic lesions in liver; cited from earlier work
[2] = Ex vivo biodistribution in mice bearing LNCaP tumor xenografts; parameters: species or system mouse (male NOD-scid IL2Rg^null (NSG)); conditions: mouse, iv, 1 h post-injection, mean ± SD
Experimental: All imaging and biodistribution studies used male NOD-scid IL2Rg^null (NSG) mice and conducted according to the guidelines established by the Canadian Council on Animal Care and approved by Animal Ethics Committee of the University of British Columbia. For tumor inoculations, mice were anesthetized via inhalation of 2% isoflurane in oxygen and implanted subcutaneously with 5×10^6 LNCaP cells below the left shoulder. Imaging and biodistribution studies were performed only after tumors grew to 5-8 mm in diameter.
For PET/CT imaging studies, approximately 5 MBq of the ^18F-labeled tracer was injected through the tail vein. While for ex vivo biodistribution studies, mice were injected with around 2 MBq of the ^18F-labeled tracer through the tail vein. Mice were allowed to recover and roam freely in the cages after injecting the tracer. At 45 min post-injection, imaging mouse were sedated again and positioned on the scanner. A 10 min CT scan was conducted first to allow for localization and attenuation correction for later reconstruction of PET images. A 10 min PET image was acquired following CT scan. Heating pads were used during the entire procedure to keep the mice warm and circulate the blood. At 1 h post-injection, all mice for biodistribution study were euthanized with blood drawn from heart, and all tissues of interest were collected, rinsed with PBS, blotted dry, weighed, and counted using an automated gamma counter. The uptake in each organ/tissue was normalized to the injected dose and expressed as the percentage of the injected dose per gram of tissue (% ID/g).
Representative maximum intensity projection PET images of ^18F-KLF1007-pyridine-BF3 and ^18F-KL01040 acquired at 1 h post-injection from LNCaP tumor-bearing mice is enumerated in Table 4 and shown in FIG. 1. Representative maximum intensity projection PET images of ^18F-KL01120 and ^18F-KL01130 acquired at 1 h post-injection from LNCaP tumor-bearing mice is also enumerated in Table 5 and shown in FIG. 2 (^18F-KL1120) and enumerated in Table 6 and shown in FIG. 3 (^18F-KL01130).

O=C(O)CC[C@H](NC(=O)N[C@@H](CCCCNC(=O)c1ccc(F)nc1)C(=O)O)C(=O)O [^18F-DCFPyL]
liver uptake [1]: high

O=C(O)CCC[C@H](NC(=O)N[C@@H](CCCCNC(=O)[C@H](Cc1c2ccccc2cc2ccccc12)NC(=O)[C@H]1CC[C@H](CNC(=O)[C@H](CCCCNC(=O)c2ccc(F)nc2)NC(=O)CN(CC(=O)O)CC(=O)O)CC1)C(=O)O)C(=O)O [^18F-KL01040]
tissue uptake at 1 h ([2]; adrenal glands, read-out: Adrenal Glands uptake): 1.05 ± 0.26 %ID/g | tissue uptake at 1 h ([2]; blood, read-out: Blood uptake): 1.96 ± 0.37 %ID/g | tissue uptake at 1 h ([2]; bone, read-out: Bone uptake): 0.6 ± 0.18 %ID/g | tissue uptake at 1 h ([2]; brain, read-out: Brain uptake): 0.11 ± 0.08 %ID/g | tissue uptake at 1 h ([2]; fat, read-out: Fat uptake): 0.61 ± 0.15 %ID/g | tissue uptake at 1 h ([2]; heart, read-out: Heart uptake): 0.56 ± 0.14 %ID/g | tissue uptake at 1 h ([2]; kidneys, read-out: Kidneys uptake): 33.2 ± 10.1 %ID/g | tissue uptake at 1 h ([2]; lacrimal glands, read-out: Lacrimal Glands uptake): 0.23 ± 0.06 %ID/g | tissue uptake at 1 h ([2]; liver, read-out: Liver uptake): 0.58 ± 0.15 %ID/g | tissue uptake at 1 h ([2]; lncap tumor, read-out: LNCaP Tumor uptake): 11.2 ± 2.06 %ID/g | tissue uptake at 1 h ([2]; lungs, read-out: Lungs uptake): 1.56 ± 0.4 %ID/g | tissue uptake at 1 h ([2]; muscle, read-out: Muscle uptake): 0.29 ± 0.06 %ID/g | tissue uptake at 1 h ([2]; pancreas, read-out: Pancreas uptake): 0.38 ± 0.05 %ID/g | tissue uptake at 1 h ([2]; salivary glands, read-out: Salivary Glands uptake): 0.79 ± 0.11 %ID/g | tissue uptake at 1 h ([2]; seminal glands, read-out: Seminal Glands uptake): 0.26 ± 0.06 %ID/g | tissue uptake at 1 h ([2]; small intestine, read-out: Small Intestine uptake): 2.54 ± 0.5 %ID/g | tissue uptake at 1 h ([2]; spleen, read-out: Spleen uptake): 0.83 ± 0.41 %ID/g | tissue uptake at 1 h ([2]; stomach, read-out: Stomach uptake): 0.2 ± 0.07 %ID/g | tissue uptake at 1 h ([2]; tail, read-out: Tail uptake): 1.31 ± 0.41 %ID/g | tissue uptake at 1 h ([2]; testes, read-out: Testes uptake): 0.47 ± 0.07 %ID/g | tissue uptake at 1 h ([2]; thyroid, read-out: Thyroid uptake): 0.6 ± 0.06 %ID/g
